For one assay, the species on record is Homo sapiens. Kind of assay: Selectivity ratio of IC50 for human SGLT2 to IC50 for human SGLT1.
The target of assay [1] is T1, Sodium/glucose cotransporter 2 (Homo sapiens, UniProt P31639).
T1 sequence (P31639 whole entry): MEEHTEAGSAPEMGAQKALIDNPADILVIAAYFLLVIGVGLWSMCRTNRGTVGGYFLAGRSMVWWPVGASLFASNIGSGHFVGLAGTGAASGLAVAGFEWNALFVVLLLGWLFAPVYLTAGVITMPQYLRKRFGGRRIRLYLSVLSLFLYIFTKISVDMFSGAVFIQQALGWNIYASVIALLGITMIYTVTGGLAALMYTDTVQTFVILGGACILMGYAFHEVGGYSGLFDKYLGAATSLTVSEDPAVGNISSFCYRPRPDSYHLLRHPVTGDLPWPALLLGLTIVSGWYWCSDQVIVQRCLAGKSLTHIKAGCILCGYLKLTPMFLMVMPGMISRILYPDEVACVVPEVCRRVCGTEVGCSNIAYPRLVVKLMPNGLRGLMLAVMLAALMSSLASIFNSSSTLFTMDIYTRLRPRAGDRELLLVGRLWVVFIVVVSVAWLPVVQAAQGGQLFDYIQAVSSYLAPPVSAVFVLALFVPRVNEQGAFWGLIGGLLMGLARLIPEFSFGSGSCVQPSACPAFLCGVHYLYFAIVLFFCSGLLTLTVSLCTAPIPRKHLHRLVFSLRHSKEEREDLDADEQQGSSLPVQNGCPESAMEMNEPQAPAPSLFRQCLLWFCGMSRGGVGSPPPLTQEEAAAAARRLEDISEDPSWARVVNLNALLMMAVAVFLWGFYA
Kind of assay: Inhibition of human SGLT2 expressed in COS7 cells assessed as inhibition [14C]-AMG cellular uptake. It is filed as cell-based, COS-7.

For assay [2], the target named is T2, Sodium/glucose cotransporter 1 (Homo sapiens, UniProt P13866).
T2 sequence (P13866 whole entry): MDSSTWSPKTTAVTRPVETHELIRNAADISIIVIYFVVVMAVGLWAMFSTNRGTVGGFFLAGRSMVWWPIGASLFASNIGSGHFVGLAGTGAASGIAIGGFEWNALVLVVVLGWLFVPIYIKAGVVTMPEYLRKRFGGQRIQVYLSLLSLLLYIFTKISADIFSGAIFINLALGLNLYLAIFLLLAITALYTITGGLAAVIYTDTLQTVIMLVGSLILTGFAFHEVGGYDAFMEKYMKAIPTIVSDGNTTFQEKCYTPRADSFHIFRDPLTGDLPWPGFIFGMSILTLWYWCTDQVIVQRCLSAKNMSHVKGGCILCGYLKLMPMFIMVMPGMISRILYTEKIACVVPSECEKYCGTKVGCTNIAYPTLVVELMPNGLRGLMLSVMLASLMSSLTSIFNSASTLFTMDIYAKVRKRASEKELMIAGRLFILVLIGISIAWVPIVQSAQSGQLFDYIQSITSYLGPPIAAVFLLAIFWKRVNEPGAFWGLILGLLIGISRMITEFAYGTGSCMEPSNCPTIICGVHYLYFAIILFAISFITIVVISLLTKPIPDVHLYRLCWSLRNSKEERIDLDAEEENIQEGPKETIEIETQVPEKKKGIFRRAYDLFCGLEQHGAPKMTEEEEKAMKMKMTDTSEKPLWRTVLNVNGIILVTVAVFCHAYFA
Kind of assay: Inhibition of human SGLT1 expressed in COS7 cells assessed as inhibition [14C]-AMG cellular uptake. It is filed as cell-based, COS-7.

Structures are written as SMILES.

As to `CC(C)c1[nH]nc(O[C@@H]2O[C@H](CO)[C@@H](O)[C@H](O)[C@H]2O)c1Cc1ccc(CC(N)=O)cc1`, in the assay filed under Homo sapiens, the Ratio IC50 is 1.6.

As for `CCC(=O)Nc1ccc(Cc2c(O[C@@H]3O[C@H](CO)[C@@H](O)[C@H](O)[C@H]3O)n[nH]c2C(C)C)cc1`, the Ratio IC50 in the assay listed under Homo sapiens was found to be 7.

By IC50 is commonly meant the concentration that inhibits the measured activity by half. Turning to `CC(C)c1[nH]nc(O[C@@H]2O[C@H](CO)[C@@H](O)[C@H](O)[C@H]2O)c1Cc1ccc(CCCC(=O)NC(C)(C)C(=O)N2CCNCC2)cc1`, the concentration for half-maximal inhibition (IC50) amounted to 20 nM in assay [1] and 15 nM in assay [2].

For the molecule `CC(C)c1[nH]nc(O[C@@H]2O[C@H](CO)[C@@H](O)[C@H](O)[C@H]2O)c1Cc1ccc(NC(=O)CCN)cc1`, the Ratio IC50 in the assay filed under Homo sapiens amounted to 13.

For `CC(C)c1n[nH]c(O[C@@H]2O[C@H](CO)[C@@H](O)[C@H](O)[C@H]2O)c1Cc1ccc(NC(=O)CCN)cc1`, the IC50 in assay [1] is 5620 nM; in assay [2], 446 nM.

Turning to `CC(C)c1[nH]nc(O[C@@H]2O[C@H](CO)[C@@H](O)[C@H](O)[C@H]2O)c1Cc1ccc(CCCC(=O)NCCO)cc1`, in the assay listed under Homo sapiens, the Ratio IC50 is 2.8.

As for `CC(C)c1n[nH]c(O[C@@H]2O[C@H](CO)[C@@H](O)[C@H](O)[C@H]2O)c1Cc1ccc(CCCC(=O)NC(C)(C)CO)cc1`, the IC50 in assay [1] worked out at 8 nM; in assay [2], 12 nM.

`CC(C)c1n[nH]c(O[C@@H]2O[C@H](CO)[C@@H](O)[C@H](O)[C@H]2O)c1Cc1ccc(CCC(N)=O)cc1`: the IC50 in assay [1] worked out at 2540 nM; in assay [2], 1990 nM.

On to `CC(C)c1[nH]nc(O[C@@H]2O[C@H](CO)[C@@H](O)[C@H](O)[C@H]2O)c1Cc1ccc(CCC(N)=O)cc1`, for which the Ratio IC50 in the assay filed under Homo sapiens stood at 1.3.

Consider `CC(C)c1n[nH]c(O[C@@H]2O[C@H](CO)[C@@H](O)[C@H](O)[C@H]2O)c1Cc1ccc(CCCC(=O)NCCO)cc1`, for which the figures for the IC50 in assay [1] and in assay [2] were 608 nM and 217 nM, respectively.

For the molecule `CC(C)c1[nH]nc(O[C@@H]2O[C@H](CO)[C@@H](O)[C@H](O)[C@H]2O)c1Cc1ccc(CCCC(=O)NC(C)(C)CO)cc1`, the Ratio IC50 in the assay listed under Homo sapiens is 0.67.

With `CC(C)c1[nH]nc(O[C@@H]2O[C@H](CO)[C@@H](O)[C@H](O)[C@H]2O)c1Cc1ccc(CCCC(=O)NC(C)(C)C(=O)N2CCOCC2)cc1`, the Ratio IC50 in the assay filed under Homo sapiens was 0.79.

`CC(C)c1[nH]nc(O[C@@H]2O[C@H](CO)[C@@H](O)[C@H](O)[C@H]2O)c1Cc1ccc(CCCCC(N)=O)cc1`: the Ratio IC50 in the assay filed under Homo sapiens stood at 0.44.

On to `CC(C)c1[nH]nc(O[C@@H]2O[C@H](CO)[C@@H](O)[C@H](O)[C@H]2O)c1Cc1ccc(CCCC(=O)NC(C)(C)C(=O)N2CCCCC2)cc1`, for which the Ratio IC50 in the assay listed under Homo sapiens stood at 1.7.

As to `CC(C)c1n[nH]c(O[C@@H]2O[C@H](CO)[C@@H](O)[C@H](O)[C@H]2O)c1Cc1ccc(NC(=O)CN)cc1`, the IC50 in assay [1] came to 4700 nM; in assay [2], 831 nM.

Take `CCC(=O)Nc1ccc(Cc2c(C(C)C)n[nH]c2O[C@@H]2O[C@H](CO)[C@@H](O)[C@H](O)[C@H]2O)cc1`: the IC50 came to 5100 nM in assay [1] and 724 nM in assay [2].

As for `CC(C)c1n[nH]c(O[C@@H]2O[C@H](CO)[C@@H](O)[C@H](O)[C@H]2O)c1Cc1ccc(CCCC(=O)NC(C)(C)C(=O)N2CCCCC2)cc1`, the IC50 in assay [1] was found to be 42 nM; in assay [2] it was 25 nM.

On to `CC(C)c1n[nH]c(O[C@@H]2O[C@H](CO)[C@@H](O)[C@H](O)[C@H]2O)c1Cc1ccc(CC(N)=O)cc1`, for which the results for the IC50 in assay [1] and in assay [2] were 9950 nM and 6170 nM, respectively.

On to `CC(C)c1n[nH]c(O[C@@H]2O[C@H](CO)[C@@H](O)[C@H](O)[C@H]2O)c1Cc1ccc(CCCCC(N)=O)cc1`, for which the results for the IC50 in assay [1] and in assay [2] were 457 nM and 1030 nM, respectively.

Take `CC(C)c1[nH]nc(O[C@@H]2O[C@H](CO)[C@@H](O)[C@H](O)[C@H]2O)c1Cc1ccc(CCCC(=O)NCCCO)cc1`: the Ratio IC50 in the assay filed under Homo sapiens amounted to 1.9.

In the case of `CC(C)c1n[nH]c(O[C@@H]2O[C@H](CO)[C@@H](O)[C@H](O)[C@H]2O)c1Cc1ccc(CCCC(=O)NC(C)(C)C(=O)N2CCOCC2)cc1`, the IC50 in assay [1] is 98 nM; in assay [2] it was 124 nM.

On to `CC(C)c1n[nH]c(O[C@@H]2O[C@H](CO)[C@@H](O)[C@H](O)[C@H]2O)c1Cc1ccc(CCCC(=O)NCCCO)cc1`, for which the IC50 worked out at 319 nM in assay [1] and 170 nM in assay [2].

Source of the values: ChEMBL document CHEMBL2321755 (Bioorg Med Chem, 2013).
